Reference: patent US20050182025A1, “Amidinylphenyl compounds and their use as fungicides” (priority 2002, published 2005)

Experiments:
Assay type in all cases: in vivo
Septoria nodorum = test: Test C: preventive spray on wheat seedlings, Septoria glume blotch, disease rating; settings: wheat seedlings sprayed to run-off, inoculated the following day with Septoria nodorum, 48 h saturated atmosphere then 9 days at 20° C.; test concentration not given
In short: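 Preventive test: one day after spraying (to run-off; 200 ppm ≈ 500 g/ha, in acetone/water with 250 ppm surfactant), seedlings received a S. nodorum spore suspension. After 48 h in saturated air and 9 days in a growth chamber, both at 20° C., % disease control versus controls was scored.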

Puccinia recondita = test: Test B: preventive spray on wheat seedlings, wheat leaf rust, disease rating; settings: wheat seedlings sprayed to run-off, inoculated the following day with Puccinia recondita, 24 h saturated atmosphere then 6 days at 20° C.; test concentration not given
In short: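 Preventive test: seedlings inoculated with Puccinia recondita one day after run-off spraying with test suspension (acetone/water, 250 ppm Trem 014; 200 ppm equals 500 g/ha). Rating after 24 h at 20° C in saturation plus 6 days in 20° C growth chamber; 0–100 scale versus controls.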

[1] = test system: Erysiphe graminis f. sp. tritici; test: Test A: preventive spray on wheat seedlings, wheat powdery mildew, disease rating; settings: wheat seedlings sprayed to run-off, inoculated the following day with Erysiphe graminis f. sp. tritici, rated after 7 days at 20° C.; test concentration not given
In short: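 Preventive test: Erysiphe graminis f. sp. tritici spore dust applied one day after run-off spraying of seedlings with acetone/water/surfactant suspension, 200 ppm equating to 500 g/ha. Plants held 7 days at 20 °C; ratings give % disease control versus controls, 100 full, 0 none.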

| Compound | Test C disease control rating (100 = 100% disease control, 0 = no disease control relative to the controls) (Septoria nodorum) [%] | Test B disease control rating (100 = 100% disease control, 0 = no disease control relative to the controls) (Puccinia recondita) [%] | Test A disease control rating (100 = 100% disease control, 0 = no disease control relative to the controls) [1] [%] |
| --- | --- | --- | --- |
| CCCN(C)C(=S)Nc1cc(C(C)C)c(OCCC[Si](C)(C)C)cc1C [compound 93] | 99 | 100 | 99 |
| CCN(C)C(=S)Nc1cc(C(C)C)c(OCCC[Si](C)(C)C)cc1C [compound 94] | 100 | 100 | 99 |
| CC(=Nc1cc(C)c(OCCCC(C)C)cc1C)N(C)C [compound 96] | 100 | 100 | 0 |
| CCCC(CCC(C)C)Oc1cc(C)c(N=C(C)N(C)C)cc1C (stereo not drawn) [compound 97] | 85 | 45 | 0 |
| CC(=Nc1cc(C)c(OCCC(C)CC(C)(C)C)cc1C)N(C)C (stereo not drawn) [compound 98] | 94 | 60 | 0 |
| CCCCCC(CCCCC)Oc1cc(C)c(N=C(C)N(C)C)cc1C [compound 99] | 0 | 9 | 0 |
| CCC(CCC(C)C)Oc1cc(C)c(N=C(C)N(C)C)cc1C (stereo not drawn) [compound 100] | 76 | 86 | 0 |
| CCCC(CCC)Oc1cc(C)c(N=C(C)N(C)C)cc1C [compound 101] | 100 | 100 | 100 |
| CC(=Nc1cc(C)c(OC(C)CCC(C)C)cc1C)N(C)C (stereo not drawn) [compound 102] | 89 | 95 | 21 |
| CC(=Nc1cc(C)c(OC(CCC(C)C)CCC(C)C)cc1C)N(C)C [compound 103] | 0 | 0 | 31 |
| C=C(C)CCC(CC)Oc1cc(C)c(N=C(C)N(C)C)cc1C (stereo not drawn) [compound 104] | 0 | 23 | 0 |
| Cc1cc(SC(C)CCC(C)C)c(C)cc1N=CN(C)C (stereo not drawn) [compound 105] | 98 | 100 | 97 |
| CCN(C)C(=S)Nc1cc(C)c(OCCCC(C)C)cc1C [compound 106] | 100 | 100 | 100 |
| Cc1cc(OCCCC(C)C)c(C)cc1NC(=S)N(C)C [compound 107] | 99 | 99 | 60 |
| CCN(CC)C(=S)Nc1cc(C)c(OCCCC(C)C)cc1C [compound 108] | 96 | 89 | 87 |
| CC(=Nc1cc(Cl)c(OCCCC(C)C)cc1C)N(C)C [compound 110] | 99 | 97 | 42 |

| Compound | Test C disease control rating (100 = 100% disease control, 0 = no disease control relative to the controls) (Septoria nodorum) [%] | Test B disease control rating (100 = 100% disease control, 0 = no disease control relative to the controls) (Puccinia recondita) [%] | Test A disease control rating (100 = 100% disease control, 0 = no disease control relative to the controls) [1] [%] |
| --- | --- | --- | --- |
| CC(=Nc1cc(Cl)c(OCCCC(C)C)cc1C)N(C)C [compound 111] | 100 | 100 | 99 |
| CCN(C)C(=S)Nc1cc(Cl)c(OCCCC(C)C)cc1C [compound 112] | 99 | 99 | 95 |
| CCN(CC)C(=S)Nc1cc(Cl)c(OCCCC(C)C)cc1C [compound 113] | 100 | 99 | 91 |
| CCN(C)C(=S)Nc1cc(Cl)c(OCCCC(C)C)cc1C [compound 114] | 100 | 100 | 99 |
| Cc1c(N=CN(C)C)cc(Cl)c(OCCCC(C)C)c1Cl [compound 115] | 100 | 85 | 85 |
| CC(=Nc1cc(Cl)c(OCCCC(C)C)c(Cl)c1C)N(C)C [compound 116] | 100 | 92 | 87 |
| CCN(CC)C(=S)Nc1cc(Cl)c(OCCCC(C)C)c(Cl)c1C [compound 117] | 60 | 37 | 29 |
| CCN(C)C(=S)Nc1cc(Cl)c(OCCCC(C)C)c(Cl)c1C [compound 118] | 78 | 100 | 99 |
| Cc1c(NC(=S)N(C)C)cc(Cl)c(OCCCC(C)C)c1Cl [compound 119] | 78 | 64 | 0 |
| CCN(CC)C(=S)Nc1cc(Cl)c(OCCCC(C)(C)C)cc1C [compound 120] | 0 | 8 | 91 |
| Cc1c(NC(=S)N(C)C)cc(Cl)c(OCCCC(C)(C)C)c1Cl [compound 121] | 67 | 85 | 49 |
| CCN(C)C(=S)Nc1cc(Cl)c(OCCCC(C)(C)C)c(Cl)c1C [compound 122] | 0 | 100 | 99 |
| CC(C)CCCOc1cc(Cl)c(NC(=S)N(C)C)cc1Cl [compound 123] | 100 | 46 | 54 |
| CCN(C)C(=S)Nc1cc(Cl)c(OCCCC(C)C)cc1Cl [compound 124] | 100 | 98 | 98 |
| CCN(C)C(=S)Nc1cc(Cl)c(OCCCC(C)C)cc1Cl [compound 125] | 100 | 97 | 96 |
| CC(C)CCCOc1cc(Cl)c(N=CN(C)C)cc1Cl [compound 126] | 100 | 40 | 95 |
